For the assay, the target named is T1, mAChR M4 (UniProt P08173).
T1 construct: hM1 and hM4 cDNAs were purchased from Missouri S&T cDNA Resource
T1 sequence (P08173 1-479): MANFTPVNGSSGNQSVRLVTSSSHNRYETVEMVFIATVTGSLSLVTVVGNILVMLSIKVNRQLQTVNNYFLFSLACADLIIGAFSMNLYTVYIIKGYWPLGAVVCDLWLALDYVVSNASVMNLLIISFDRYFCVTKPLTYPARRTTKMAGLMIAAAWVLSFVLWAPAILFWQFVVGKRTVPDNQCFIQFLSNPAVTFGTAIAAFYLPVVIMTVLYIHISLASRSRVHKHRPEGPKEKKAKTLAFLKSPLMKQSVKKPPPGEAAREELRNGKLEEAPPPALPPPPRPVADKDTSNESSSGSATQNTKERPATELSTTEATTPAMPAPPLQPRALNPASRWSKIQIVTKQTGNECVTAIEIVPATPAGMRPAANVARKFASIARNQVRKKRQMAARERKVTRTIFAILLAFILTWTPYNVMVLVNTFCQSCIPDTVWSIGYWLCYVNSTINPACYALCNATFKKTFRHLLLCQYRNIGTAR
In words: mAChR M4 cell-based functional assay (calcium mobilization, Fluo-4, FDSS). The conditions noted are these: for Emax (%)*: % ACh maximum at 30 μM; for pEC50: positive allosteric modulator activity, EC20 acetylcholine response; for pEC50 / EC50: CHO-K1 cells; for EC50: positive allosteric modulator activity: concentration-dependent increase in the EC20 acetylcholine response, >10 μM estimated for low potency (no plateau). The source says: Chinese hamster ovary (CHO-K1) cells stably expressing rat (r)M1 were purchased from the American Type Culture Collection and cultured according to their indicated protocol. CHO cells stably expressing human (h)M2, hM3, and hM5 were described previously (Levey A I, et al., (1991) J Neurosci 11:3218-3226.); hM1 and hM4 cDNAs were purchased from Missouri S&T cDNA Resource; rM4 cDNA was provided by T. I. Bonner (National Institutes of Health, Bethesda, Md.). rM2 and rM3 were cloned from a rat brain cDNA library and sequence verified. hM1, rM2, rM3, hM4, and rM4 cDNAs were used to stably transfect CHO-K1 cells purchased from the American Type Culture Collection using Lipofectamine-2000. To make stable rM2, hM2, rM3, hM4, and rM4 cell lines for use in calcium mobilization assays, these cells also were stably transfected with a chimeric G-protein (Gqi5) (provided by B. R. Conklin, University of California, San Francisco) using Lipofectamine 2000. rM1, hM1, rM3, hM3, rM5, and hM5 cells were grown in Ham's F-12 medium containing 10% heat-inactivated fetal bovine serum (FBS), 20 mM HEPES, and 50 µg/mL G418 sulfate. rM2-Gqi5, hM2-Gqi5, and hM4-Gqi5 cells were grown in the same medium also containing 500 µg/mL Hygromycin B. Stable rM4-Gqi5 cells were grown in DMEM containing 10% heat-inactivated FBS, 20 mM HEPES, 400 µg/mL G418 sulfate, and 500 µg/mL Hygromycin B.
For high throughput measurement of agonist-evoked increases in intracellular calcium, CHO-K1 cells stably expressing the target muscarinic receptor were plated in growth medium lacking G418 and hygromycin at 15,000 cells/20 μL/well in Greiner 384-well black-walled, tissue culture (TC)-treated, clear-bottom plates (VWR). Cells were incubated overnight at 37° C. and 5% CO2. The next day, cells were washed using an ELX 405 (BioTek) with four washes (80 μL) of assay buffer then aspirated to 20 μL. Next, […] of 16 μM Fluo-4/acetoxymethyl ester (Invitrogen, Carlsbad, Calif.) prepared as a 2.3 mM stock in DMSO and mixed in a 1:1 ratio with 10% (w/v) Pluronic F-127 and diluted in assay buffer was added to the wells and the cell plates were incubated for 50 min at 37° C. and 5% CO2. Dye was removed by washing with the ELX 405 (four 80 μL washes of assay buffer) then aspirated to 20 μL. Compound master plates were formatted in an 11 point CRC format (1:3 dilutions) in 100% DMSO with a starting concentration of 10 mM using the BRAVO liquid handler (Agilent). Test compound CRCs were then transferred to daughter plates (240 nL) using the Echo acoustic plate reformatter (Labcyte, Sunnyvale, Calif.) and then diluted into assay buffer (40 μL) to a 2× stock using a Thermo Fisher Combi (Thermo Fisher Scientific, Waltham, Mass.).
Calcium flux was measured using the Functional Drug Screening System (FDSS) 6000 (Hamamatsu Corporation, Tokyo, Japan) as an increase in the fluorescent static ratio. Compounds were applied to cells (20 μL, 2×) using the automated system of the FDSS 6000 at 4 s into the 300 s protocol and the data were collected at 1 Hz. At 144 s into the 300 s protocol, 10 μL of an EC20 concentration of the muscarinic receptor agonist acetylcholine was added (5×), followed by the addition of 12 μL an EC80 concentration of acetylcholine at the 230 s time point (5×). Agonist activity was analyzed as a concentration-dependent increase in calcium mobilization upon compound addition. Positive allosteric modulator activity was analyzed as a concentration-dependent increase in the EC20 acetylcholine response. Antagonist activity was analyzed as a concentration-dependent decrease in the EC80 acetylcholine response. Concentration-response curves were generated using a four-parameter logistical equation in XLfit curve fitting software (IDBS, Bridgewater, N.J.) for Excel (Microsoft, Redmond, Wash.) or Prism (GraphPad Software, Inc., San Diego, Calif.). […]

Here are results for 19 compounds from patent publication US9056876B2, “Substituted 1H-pyrazolo[3′,4′,4,5]thieno[2,3-b]pyridin-3-amine analogs as positive allosteric modulators of the muscarinic acetylcholine receptor M4” (VANDERBILT UNIVERSITY, priority 2011, dated 2015).

Usually pEC50 stands for −log10 of the EC50, conventionally taken in molar units. A word on the EC50: it is the concentration at which the effect is half-maximal.

As for `Cc1nc2sc3c(NCc4ccccc4)n[nH]c3c2c(C)c1Cl` [Compound 16, N-benzyl-7-chloro-6,8-dimethyl-1H-pyrazolo[3′,4′:4,5]thieno[2,3-b]pyridin-3-amine], the “Emax (%)*” value is listed as 32%, the pEC50 is reported as under 5.00 and the EC50 is over 10000 nM.

For `Cc1cc(C)c2c(n1)sc1c(NCC3CC3)nn(C(=O)OC(C)(C)C)c12` [Compound 8, tert-butyl 3-((cyclopropylmethyl)amino)-6,8-dimethyl-1H-pyrazolo[3′,4′:4,5]thieno[2,3-b]pyridine-1-carboxylate], the “Emax (%)*” value amounted to 61%, the pEC50 was found to be 5.62 and the EC50 was 2410 nM.

In the case of `Cc1ccc2c(n1)sc1c(NCc3ccco3)nn(C)c12` [Compound 52, N-(furan-2-ylmethyl)-1,6-dimethyl-1H-pyrazolo[3′,4′:4,5]thieno[2,3-b]pyridin-3-amine], the “Emax (%)*” value amounted to 64%, the pEC50 is reported as 5.82 and the EC50 was 1500 nM.

For the compound `Cc1cc(C)c2c(n1)sc1c(NCc3ccc(S(C)(=O)=O)cc3)nn(CCO)c12` [Compound 116, 2-(6,8-dimethyl-3-((4-(methylsulfonyl)benzyl)amino)-1H-pyrazolo[3′,4′:4,5]thieno[2,3-b]pyridin-1-yl)ethanol], the “Emax (%)*” value came to 73%, the pEC50 is recorded as 7.24 and the EC50 is 57 nM.

As for `Cc1nc2sc3c(N)nn(C)c3c2c(C)c1Cl` [Compound 23, 7-chloro-1,6,8-trimethyl-1H-pyrazolo[3′,4′:4,5]thieno[2,3-b]pyridin-3-amine], the “Emax (%)*” value stood at 50%, the pEC50 was found to be 6.07 and the EC50 is 850 nM.

As to `Cc1cc(C)c2c(n1)sc1c(NCc3ccc(F)cc3)nn(C)c12` [Compound 39, N-(4-fluorobenzyl)-1,6,8-trimethyl-1H-pyrazolo[3′,4′:4,5]thieno[2,3-b]pyridin-3-amine], the “Emax (%)*” value came to 68%, the pEC50 worked out at 6.30 and the EC50 is 500 nM.

Turning to `Cc1cc(C)c2c(n1)sc1c(NCc3nccs3)nn(C)c12` [Compound 100, 1,6,8-trimethyl-N-(thiazol-2-ylmethyl)-1H-pyrazolo[3′,4′:4,5]thieno[2,3-b]pyridin-3-amine], the “Emax (%)*” value is 47%, the pEC50 amounted to 6.37 and the EC50 is 430 nM.

Regarding `Cc1cc(C)c2c(n1)sc1c(NC3CCSC3)nn(C)c12` (stereo not shown) [Compound 73, 1,6,8-trimethyl-N-(tetrahydrothiophen-3-yl)-1H-pyrazolo[3′,4′:4,5]thieno[2,3-b]pyridin-3-amine], the “Emax (%)*” value came out at 84%, the pEC50 worked out at 7.06 and the EC50 is 87 nM.

Take `COc1cc(OC)cc(C(C)Nc2nn(C)c3c2sc2nc(C)cc(C)c23)c1` (stereo not shown) [Compound 48, N-(1-(3,5-dimethoxyphenyl)ethyl)-1,6,8-trimethyl-1H-pyrazolo[3′,4′:4,5]thieno[2,3-b]pyridin-3-amine]: the “Emax (%)*” value is reported as 38%, the negative logarithm of the EC50 (pEC50) was under 5.00 and the EC50 was over 10000 nM.

As for `CCNc1n[nH]c2c1sc1nc(C)cc(C)c12` [Compound 15, N-ethyl-6,8-dimethyl-1H-pyrazolo[3′,4′:4,5]thieno[2,3-b]pyridin-3-amine], the “Emax (%)*” value worked out at 65%, the pEC50 is 5.68 and the EC50 was 2100 nM.

For the compound `Cc1cc(C)c2c(n1)sc1c(NC3CCCC3)n[nH]c12` [Compound 10, N-cyclopentyl-6,8-dimethyl-1H-pyrazolo[3′,4′:4,5]thieno[2,3-b]pyridin-3-amine], the “Emax (%)*” value was 55%, the pEC50 came out at 5.76 and the EC50 is 1740 nM.

Take `Cc1cc(C)c2c(n1)sc1c(NC3CCSCC3)nn(CCO)c12` [Compound 114, 2-(6,8-dimethyl-3-((tetrahydro-2H-thiopyran-4-yl)amino)-1H-pyrazolo[3′,4′:4,5]thieno[2,3-b]pyridin-1-yl)ethanol]: the “Emax (%)*” value amounted to 70%, the pEC50 came out at 6.43 and the EC50 was 370 nM.

With `Cc1cc(C)c2c(n1)sc1c(NCc3ccc(S(C)(=O)=O)cc3)nn(C)c12` [Compound 75, 1,6,8-trimethyl-N-(4-(methylsulfonyl)benzyl)-1H-pyrazolo[3′,4′:4,5]thieno[2,3-b]pyridin-3-amine], the “Emax (%)*” value is 73%, the negative logarithm of the EC50 (pEC50) is 6.60 and the EC50 is 250 nM.

As to `Cc1ccnc(Nc2nn(C)c3c2sc2nc(C)c(Cl)c(C)c23)n1` [Compound 28, 7-chloro-1,6,8-trimethyl-N-(4-methylpyrimidin-2-yl)-1H-pyrazolo[3′,4′:4,5]thieno[2,3-b]pyridin-3-amine], the “Emax (%)*” value worked out at 36%, the pEC50 is recorded as under 5.00 and the EC50 was over 10000 nM.

Turning to `Cc1ccc2c(n1)sc1c(N)n[nH]c12` [Compound 149, 6-methyl-1H-pyrazolo[3′,4′:4,5]thieno[2,3-b]pyridin-3-amine], the pEC50 was under 5.00 and the EC50 was over 10000 nM.

With `Cc1cc(C)c2c(n1)sc1c(NCc3scnc3C)nn(C)c12` [Compound 93, 1,6,8-trimethyl-N-((4-methylthiazol-5-yl)methyl)-1H-pyrazolo[3′,4′:4,5]thieno[2,3-b]pyridin-3-amine], the “Emax (%)*” value came out at 53%, the pEC50 is on record as 7.42 and the EC50 is 38 nM.

For `Cc1cc(C)cc(CNc2n[nH]c3c2sc2nc(C)c(Cl)c(C)c23)c1` [Compound 144, 7-chloro-N-(3,5-dimethylbenzyl)-6,8-dimethyl-1H-pyrazolo[3′,4′:4,5]thieno[2,3-b]pyridin-3-amine], the pEC50 is on record as under 5.00 and the EC50 was over 10000 nM.

With `Cc1ccnc2sc3c(NCc4ccccc4)nn(C)c3c12` [Compound 68, N-benzyl-1,8-dimethyl-1H-pyrazolo[3′,4′:4,5]thieno[2,3-b]pyridin-3-amine], the “Emax (%)*” value turned out to be 75%, the pEC50 came out at 6.24 and the EC50 is 580 nM.

For `Cc1nc2sc3c(NCc4ccco4)nn(C)c3c2c(C)c1Cl` [Compound 25, 7-chloro-N-(furan-2-ylmethyl)-1,6,8-trimethyl-1H-pyrazolo[3′,4′:4,5]thieno[2,3-b]pyridin-3-amine], the “Emax (%)*” value was 57%, the pEC50 stood at 6.66 and the EC50 was 220 nM.
